Data reported in patent EP1020434A1, “3-AMIDINOANILINE DERIVATIVES, ACTIVATED BLOOD COAGULATION FACTOR X INHIBITORS, AND INTERMEDIATES FOR PRODUCING BOTH” (priority 1997, dated 1999).
Where a name gives a salt, the structure may show the parent alone. Read-outs that look alike come from different tables or passages of the source.

Columns and labels:
[1] = target: T1, human activated blood coagulation factor X (Homo sapiens, UniProt P00742); test: Measurement of inhibitory activity for activated blood coagulation factor X (chromogenic substrate S-2222); assay type: biochemical
T1 construct: purchased Calbiochem Corporation
T1 sequence (P00742 235-488 limits assumed): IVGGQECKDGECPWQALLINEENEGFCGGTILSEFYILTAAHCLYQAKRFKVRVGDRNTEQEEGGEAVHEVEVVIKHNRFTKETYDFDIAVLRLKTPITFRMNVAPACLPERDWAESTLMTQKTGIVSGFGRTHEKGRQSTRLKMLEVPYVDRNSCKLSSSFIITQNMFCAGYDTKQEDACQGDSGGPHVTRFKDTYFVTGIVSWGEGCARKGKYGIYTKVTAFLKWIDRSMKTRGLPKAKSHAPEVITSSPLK
T1 sequence (P00742 41-179 partner limits assumed): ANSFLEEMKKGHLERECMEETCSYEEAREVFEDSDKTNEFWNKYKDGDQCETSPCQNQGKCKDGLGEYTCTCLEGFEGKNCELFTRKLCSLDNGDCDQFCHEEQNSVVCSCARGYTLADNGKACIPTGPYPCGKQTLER
Protocol: Measurement of inhibitory activity for activated blood coagulation factor X
(§1) Five µl of dimethylsulfoxide solution of test compound, 375 µl of tris-hydrochloric acid buffer (pH 8.4) and 100 µl of 1 mM S-2222 (Daiichi Pure Chemicals) aqueous solution were mixed. Then 20 µl of 0.6 U/ml human activated blood coagulation factor X (Calbiochem Corporation) in gelatin-glycine buffer was added and the mixture was incubated for 10 minutes at 37 °C. The reaction was terminated with the addition of 100 µl of 60 % acetic acid and absorbance (405 nm) was measured.
The group without the test compound was defined as control and the group without human activated blood coagulation factor X was defined as blank.

human thrombin = target: T2, human thrombin (Homo sapiens, UniProt P00734); test: Measurement of inhibitory activity for thrombin (chromogenic substrate S-2238); assay type: biochemical
T2 construct: human thrombin (Sigma Chemical Company); purchased Sigma Chemical Company
Protocol: Measurement of inhibitory activity for thrombin
as §1, with “S-2238” for “S-2222”, “2.0” for “0.6”, “thrombin (Sigma Chemical Company)” for “activated blood coagulation factor X (Calbiochem Corporation)”
The group without the test compound was defined as control and the group without human thrombin was defined as blank. […]

normal human plasma = test: Measurement of anticoagulation effects (plasma prothrombin time); assay type: biochemical; conditions: CT2, concentration that prolonged the clotting time (prothrombin time) of control by 2 times
Protocol: Measurement of anticoagulation effects (plasma prothrombin time)
Two µl of dimethylsulfoxide solution of test compound which was put in a process tube was incubated at 37 °C, and 50 µl of normal human plasma (George King Bio-Medical Inc.) was mixed. One minute later, 100 µl of plasma prothrombin time reagent (Neoplastin Plus®, Boehringer Mannheim) was added into the mixture. Prothrombin time was measured with ST4 (Boehringer Mannheim).
The group without the test compound was defined as control. The concentration of test compound that prolonged the clotting time of control by 2 times (CT2) was obtained and this value was used as the index of anticoagulation activity.

Male Wistar rats = test: Acute toxicity test; assay type: in vivo
Protocol: Male Wistar rats aged 7 weeks (SLC) were divided into several groups consisting of 5 rats. The test compound was dissolved at the concentration that became the administration volume as 2.5 ml/kg. The solution was administered through the tail vein at an infusion rate of 1 ml/minute. Observations were performed at constant intervals, and survival rate was judged for 24 hours.

[2] = IC50, concentration showing 50 % inhibition of control, 10 minutes at 37 °C, pH 8.4, read-out: Inhibitory activity for activated blood coagulation factor X
[3] = IC50, concentration showing 50 % inhibition of control, 10 minutes at 37 °C, pH 8.4, read-out: Inhibitory activity for thrombin

SMILES | IC50 [1, 2] [µM] | IC50 (human thrombin; [3]) [µM] | Anticoagulation effect (normal human plasma) [µM] | Death case (Male Wistar rats; 30 mg/kg through the tail vein, groups of 5 rats, survival judged for 24 hours) | death in acute toxicity test (Male Wistar rats; rats, intravenous administration, dose of 30 mg/kg) | IC50 [1] [µM] | IC50 (human thrombin) [µM]
CC(=N)N1CCC(c2ccc(NC(=O)CN(Cc3cccc(O)c3)c3cccc(C(=N)N)c3)cc2)CC1.Cl.Cl [Compound 52, 2-[N-(3-Amidinophenyl)-N-(3-hydroxybenzyl)amino]-N-[4-[1-(1-iminoethyl)piperidin-4-yl]phenyl]acetamide dihydrochloride] | 0.016 | 77 | 0.17 |  |  |  | 
CC(=N)N1CCC(Oc2ccc(NC(=O)CNc3cccc(C(=N)N)c3)cc2)CC1 [Compound 79, 2-(3-Amidinophenylamino)-N-[4-[1-(1-iminoethyl)piperidin-4-yloxy]phenyl]acetamide dihydrochloride] | 0.096 | 308 |  |  |  |  | 
CC(=N)N1CCC(c2ccc(NC(=O)CN(Cc3cccc(OCC(=O)O)c3)c3cccc(C(=N)N)c3)cc2)CC1.Cl.Cl [Compound 62, 2-[N-(3-Amidinophenyl)-N-(3-carboxymethyloxybenzyl)amino]-N-[4-[1-(1-iminoethyl)piperidin-4-yl]phenyl]acetamide dihydrochloride] |  | 206 | 0.21 | 0/5 | no death was observed |  | 
CC(=N)N1CCC(c2ccc(NC(=O)CN(Cc3nc[nH]c3C)c3cccc(C(=N)N)c3)cc2)CC1.Cl.Cl [Compound 74, 2-[N-(3-Amidinophenyl)-N-(5-methylimidazol-4-ylmethyl)amino]-N-[4-[1-(1-iminoethyl)piperidin-4-yl]phenyl]acetamide dihydrochloride] | 0.019 | 177 | 0.30 |  |  |  | 
CC(=N)N1CCC(c2ccc(NC(=O)CN(CC=C(C)C)c3cccc(C(=N)N)c3)cc2)CC1.Cl.Cl [Compound 55, 2-[N-(3-Amidinophenyl)-N-(3-methyl-2-butenyl)amino]-N-[4-[1-(1-iminoethyl)piperidin-4-yl]phenyl]acetamide dihydrochloride] | 0.004 | 15 | 0.091 |  |  |  | 
CC(=N)N1CCC(Oc2ccc(NC(=O)CN(Cc3ccccc3)c3cccc(C(=N)N)c3)cc2)CC1 [Compound 58, 2-[N-(3-Amidinophenyl)-N-benzylaminol-N-[4-[1-(1-imino-ethyl)piperidin-4-yloxy]phenyl]acetamidedihydrochloride] |  |  | 0.24 |  |  | 0.042 | 100
CC(=N)N1CCC(c2ccc(NC(=O)CN(Cc3cccc4ccccc34)c3cccc(C(=N)N)c3)cc2)CC1 [Compound 65, 2-[N-(3-Amidinophenyl)-N-(1-naphthylmethyl)amino]-N-[4-[1-(1-iminoethyl)piperidin-4-yl]phenyl]acetamide dihydrochloride] | 0.008 | 42 |  |  |  |  | 
CC(C)=CCN(CC(=O)Nc1ccc(OC(C)C)cc1)c1cccc(C(=N)N)c1.Cl [Compound 22, 2-[N-(3-Amidinophenyl)-N-(3-methyl-2-butenyl)amino]-N-(4-isopropoxyphenyl)acetamide hydrochloride] | 0.015 | 13 | 0.29 |  |  |  | 
